Laboratory results as given in patent publication US9545105B2, “1-(heterocyclic carbonyl) piperidines” (BAYER INTELLECTUAL PROPERTY GMBH, priority 2010, dated 2017).

Legend:
Septoria tritici = assay: In vivo preventive test on Septoria tritici (wheat); conditions: 500 ppm of active ingredient, evaluated 21 days after inoculation
Protocol: Solvent: 49 parts by weight of N,N-dimethylacetamide Emulsifier: 1 part by weight of alkylaryl polyglycol ether To produce a suitable preparation of active compound, 1 part by weight of active compound or active compound combination is mixed with the stated amounts of solvent and emulsifier, and the concentrate is diluted with water to the desired concentration. To test for preventive activity, young plants are sprayed with the preparation of active compound or active compound combination at the stated rate of application. After the spray coating has been dried, the plants are sprayed with a spore suspension of Septoria tritici. The plants remain for 48 hours in an incubation cabinet at approximately 20° C. and a relative atmospheric humidity of approximately 100% and afterwards for 60 hours at approximately 15° C. in a translucent incubation cabinet at a relative atmospheric humidity of approximately 100%. The plants are placed in the greenhouse at a temperature of approximately 15° C. and a relative atmospheric humidity of approximately 80%. The test is evaluated 21 days after the inoculation. 0% means an efficacy which corresponds to that of the untreated control, while an efficacy of 100% means that no disease is observed.

Pyrenophora teres = assay: In vivo preventive test on Pyrenophora teres (barley); conditions: 500 ppm of active ingredient, evaluated 7-9 days after inoculation
Procedure, shortened: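 Young barley plants sprayed with compound in DMF/alkylaryl polyglycol ether emulsion; inoculated with P. teres spores one day later. 48 h at 22 °C, 100% humidity, then greenhouse ~20 °C, ~80% humidity; efficacy scored 7-9 days post-inoculation, 0% = untreated, 100% = no disease.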

Sphaerotheca fuliginea = assay: In vivo preventive test on Sphaerotheca fuliginea (cucumber); conditions: 500 ppm of active ingredient, evaluated 7 days after inoculation
Protocol: Solvent: 49 parts by weight of N,N-dimethylformamide Emulsifier: 1 part by weight of Alkylarylpolyglycolether To produce a suitable preparation of active compound, 1 part by weight of active compound is mixed with the stated amounts of solvent and emulsifier, and the concentrate is diluted with water to the desired concentration. To test for preventive activity, young plants are sprayed with the preparation of active compound at the stated rate of application. One day after this treatment, the plants are inoculated with an aqueous spore suspension of Sphaerotheca fuliginea. Then the plants are placed in a greenhouse at approximately 23° C. and a relative atmospheric humidity of approximately 70%. The test is evaluated 7 days after the inoculation. 0% means an efficacy which corresponds to that of the untreated control, while an efficacy of 100% means that no disease is observed.

Alternaria solani = assay: In vivo preventive test on Alternaria solani (tomato); conditions: 500 ppm of active ingredient, evaluated 7 days after inoculation
Protocol: Solvent: 49 parts by weight of N,N-dimethylformamide Emulsifier: 1 part by weight of Alkylarylpolyglycolether To produce a suitable preparation of active compound, 1 part by weight of active compound is mixed with the stated amounts of solvent and emulsifier, and the concentrate is diluted with water to the desired concentration. To test for preventive activity, young plants are sprayed with the preparation of active compound at the stated rate of application. One day after this treatment, the plants are inoculated with an aqueous spore suspension of Alternaria solani. The plants remain for one day in an incubation cabinet at approximately 22° C. and a relative atmospheric humidity of 100%. Then the plants are placed in an incubation cabinet at approximately 20° C. and a relative atmospheric humidity of 96%. The test is evaluated 7 days after the inoculation. 0% means an efficacy which corresponds to that of the untreated control while an efficacy of 100% means that no disease is observed.

[1] = log P by HPLC on reversed-phase column (C 18), EEC Directive 79/831 Annex V.A8; assay type: physicochemical; conditions: HPLC on reversed-phase column (C 18); 40° C.; 0.1% aqueous formic acid and acetonitrile; linear gradient 10% to 90% acetonitrile
Procedure, shortened: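 Retention times were converted to log P by linear interpolation between two successive unbranched alkan-2-ones (3 to 16 carbon atoms) of known log P used for calibration. Elution ran at 40° C with a linear gradient from 10% to 90% acetonitrile against 0.1% aqueous formic acid.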

SMILES	Efficacy (Septoria tritici)	Efficacy (Pyrenophora teres)	Efficacy (Sphaerotheca fuliginea)	Efficacy (Alternaria solani)	logP [1]
Cc1nn(C)c(F)c1C(=O)N1CCCCC1c1ccccc1Cl (stereo not shown) [Example 36]	80%	100%	89%	95%	2.89
CCc1nn(C)c(F)c1C(=O)N1CCCCC1c1ccccc1Cl (stereo not shown) [Example 37]	80%	95%	70%	95%	3.19
CCc1nn(C)c(F)c1C(=O)N1CCCCC1c1cccc(Cl)c1 (stereo not shown) [Example 43]	80%	100%	–	95%	3.31
Cc1nn(C)c(F)c1C(=O)N1CCCCC1c1ccc(Cl)cc1 (stereo not shown) [Example 51]	100%	100%	–	95%	2.98
Cc1nn(C)c(F)c1C(=O)N1CCCCC1c1ccc(Cl)cc1Cl (stereo not shown) [Example 76]	100%	100%	–	90%	3.39
Cc1cc(C(=O)N2CCCCC2c2ccccc2Br)c(C)o1 (stereo not shown) [Example 86]	78%	90%	–	90%	3.96
CCc1nn(C)c(F)c1C(=O)N1CCCCC1c1ccccc1Br (stereo not shown) [Example 87]	89%	100%	–	95%	3.25
Cn1nc(C(F)F)c(C(=S)N2CCCCC2c2cccc(Br)c2)c1F (stereo not shown) [Example 98]	–	100%	100%	100%	4.16
Cn1nc(C(F)F)c(C(=O)N2CCCCC2c2cccc(Oc3ccccc3)c2)c1F (stereo not shown) [Example 115]	–	100%	95%	100%	3.99
CCc1nn(C)c(F)c1C(=O)N1CCCCC1c1ccc2ccccc2c1 (stereo not shown) [Example 117]	90%	95%	–	95%	3.58
Cc1nn(C)c(F)c1C(=O)N1CCCCC1c1ccc2ccccc2c1 (stereo not shown) [Example 118]	100%	100%	–	95%	3.21
Cn1nc(C(F)F)c(C(=O)N2CCCCC2c2ccc3ccccc3c2)c1F (stereo not shown) [Example 122]	–	100%	94%	100%	3.69
Cn1nc(C(F)F)c(C(=S)N2CCCCC2c2ccc3ccccc3c2)c1F (stereo not shown) [Example 123]	–	100%	88%	90%	4.36
CC(c1ccccc1)C1CCCCN1C(=O)c1c(C(F)F)nn(C)c1F (stereo not shown) [Example 138]	–	100%	98%	100%	3.39
CC(c1ccccc1)C1CCCCN1C(=S)c1c(C(F)F)nn(C)c1F (stereo not shown) [Example 139]	–	100%	95%	95%	4.14
Cn1nc(C(F)F)c(C(=O)N2CCCCC2Cc2ccc(F)cc2)c1F (stereo not shown) [Example 156]	–	100%	75%	100%	3.11
CC(c1ccccc1Cl)C1CCCCN1C(=O)c1c(C(F)F)nn(C)c1F (stereo not shown) [Example 163]	–	100%	98%	100%	3.72
CC(c1ccccc1Cl)C1CCCCN1C(=S)c1c(C(F)F)nn(C)c1F (stereo not shown) [Example 166]	–	100%	100%	100%	4.53
CCc1nn(C)c(F)c1C(=O)N1CCCCC1CCc1ccccc1 (stereo not shown) [Example 176]	70%	95%	–	90%	3.25
Cn1nc(C(F)F)c(C(=O)N2CCCCC2CCOc2ccc(C(F)(F)F)cn2)c1F (stereo not shown) [Example 196]	–	100%	70%	100%	3.57
